Data set [1] in a line: Clinical PK interaction, PART 1: zastaprazan and aceclofenac in healthy subjects. It is filed as in vivo, human (healthy subjects). As to conditions: for Cmax / AUC(0-t): human, oral; for Cmax: n = 22, plasma, mean ± SD; for AUC(0-t): plasma, n = 22, mean ± SD. The procedure: (§1) Zastaprazan may be used not only for acid-related gastric diseases but also for preventing gastric damage caused by NSAIDs.
(§2) • JP-1366, 20 mg 2 capsules (zastaprazan citrate salt 40 mg)
• Aertal tablet (aceclofenac 100 mg)
Subjects who volunteered for PART 1 were assigned a subject number on the day before the first clinical trial drug administration (−1 d) of Period 1, and then administered one aceclofenac tablet on 1 d of Period 1, administered two JP-1366 capsules on 4 d to 8 d of Period 2, and co-administered two JP-1366 capsules and one aceclofenac tablet on 9 d of Period 3. Blood samples were collected from each subject at a designated time for the PK evaluation of the clinical trial drug, and all subjects underwent safety evaluation according to the designated schedule.
(§3) Blood samples were collected at designated times for the PK evaluation of zastaprazan (JP-1366).

Data set [2] is described as follows: Clinical PK interaction, PART 2: zastaprazan and meloxicam in healthy subjects. Format: in vivo, human (healthy subjects). The procedure: as §1, §2
• Mobic capsule 15 mg (meloxicam 15 mg)
Subjects who volunteered for PART 2 were assigned a subject number on the day before the first clinical trial drug administration (−1 d) of Period 1, and then administered two JP-1366 capsules on 1 d to 5 d of Period 1, administered one meloxicam capsule on 15 d to 19 d of Period 2, and co-administered two JP-1366 capsules and one meloxicam capsule on 22 d to 26 d of Period 3. Blood samples were collected from each subject at a designated time for the PK evaluation of the clinical trial drug, and all subjects underwent safety evaluation according to the designated schedule.
as §3

Data set [3] can be described thus: Safety evaluation of zastaprazan with aceclofenac, meloxicam, or naproxen in healthy subjects. Format: in vivo, human (healthy subjects). Particulars: zastaprazan 40 mg alone and co-administered with aceclofenac 100 mg, meloxicam 15 mg or naproxen 500 mg. The text has this:
Zastaprazan may be used not only for acid-related gastric diseases but also for preventing gastric damage caused by NSAIDs. […] Blood samples were collected from each subject at a designated time for the PK evaluation of the clinical trial drug, and all subjects underwent safety evaluation according to the designated schedule. All subjects who completed the clinical trial underwent a post-study visit on 14 d to 20 d, including vital sign measurement, physical examination, adverse reaction check, confirmation of prior/concurrent medication, clinical laboratory tests, and electrocardiography. […] Blood samples were collected from each subject at a designated time for the PK evaluation of the clinical trial drug, and all subjects underwent safety evaluation according to the designated schedule. All subjects who completed the clinical trial underwent a post-study visit on 31 d to 37 d, including vital sign measurement, physical examination, adverse reaction check, confirmation of prior/concurrent medication, clinical laboratory tests, and electrocardiography. […] Blood samples were collected from each subject at a designated time for the PK evaluation of the clinical trial drug, and all subjects underwent safety evaluation according to the designated schedule. […]

Data set [4] has as its system rat gastric damage model induced by naproxen. As to the kind of experiment: Antiulcer activity in naproxen-induced acute peptic ulcer (gastric damage) rat model. It is filed as in vivo, Male Sprague-Dawley (SD) rat. The procedure:
[table] […] The dose for each individual was converted based on the body weight before administration, and is administered orally in a dosage of 5 ml per kg of body weight. […] Administration frequency and administration period: Once a day for five days (a total of 5 times) After the test, the gastric damage by the test substance was evaluated using the ulcer index. […] The removed stomach was incised along the greater curvature, the contents are removed, and the incised stomach was washed cleanly with saline solution, spread out well with a cotton swab, fixed with pins, and then photographed. The gastric damage area and the total stomach area were measured from the photographed stomach using an image program (Leica Application Suite V4), and the ulcer index was calculated as Ulcer index (%)=Damage area (mm^2)/Total area (mm^2)×100. The experimental results were statistically analyzed through Mann-Whitney analysis using a commercial statistical processing program (IBM SPSS Statistics version 25.0).

The next data set can be described thus: clinical. Format: in vivo, human (healthy subjects). The procedure:
as §2
Blood samples were collected from each subject at a designated time for the PK evaluation of the clinical trial drug, and all subjects underwent safety evaluation according to the designated schedule.
as §3

We go through three compounds from patent publication US20260183269A1, “PHARMACEUTICAL COMPOSITION FOR PREVENTION OR TREATMENT OF DRUG-RELATED PEPTIC ULCER COMPRISING ZASTAPRAZAN OR PHARMACEUTICALLY ACCEPTABLE SALT THEREOF” (priority 2022, published 2026).

For orientation: Cmax means the maximum level reached in the sampled fluid or tissue.

In the case of `O=C(O)COC(=O)Cc1ccccc1Nc1c(Cl)cccc1Cl` [Aceclofenac, aceclofenac, reference compound], the Cmax turned out to be 10100 ± 3160 ng/mL in data set [1] (A (aceclofenac 100 mg alone), read-out: aceclofenac Cmax, SS); 11800 ± 2560 ng/mL in data set [1] (Z + A (zastaprazan 40 mg and aceclofenac 100 mg), read-out: aceclofenac Cmax, SS). The AUC(0-t) in data set [1] (A (aceclofenac 100 mg alone), read-out: aceclofenac AUCT, SS) is 20400 ± 4870 ng·h/mL; in data set [1] (Z + A (zastaprazan 40 mg and aceclofenac 100 mg), read-out: aceclofenac AUCT, SS) it was 20800 ± 3840 ng·h/mL.
On to `Cc1cnc(NC(=O)C2=C(O)c3ccccc3S(=O)(=O)N2C)s1` [Meloxicam, meloxicam, reference compound], for which the AUC(0-t) was found to be 41800 ± 16400 ng·h/mL in data set [2] (human, in vivo, oral, M (meloxicam 15 mg alone), n = 22, mean ± SD, read-out: meloxicam AUCT, SS); 44000 ± 18800 ng·h/mL in data set [2] (human, in vivo, oral, Z + M (zastaprazan 40 mg and meloxicam 15 mg), n = 22, mean ± SD, read-out: meloxicam AUCT, SS). Moreover, the highest concentration (Cmax) in data set [2] (human, oral, M (meloxicam 15 mg alone), n = 22, plasma, mean ± SD, read-out: meloxicam Cmax, SS) is 2480 ± 880 ng/mL; in data set [2] (human, oral, Z + M (zastaprazan 40 mg and meloxicam 15 mg), n = 22, plasma, mean ± SD, read-out: meloxicam Cmax, SS), 2640 ± 920 ng/mL.
In the case of `Cc1cccc(C)c1CNc1cc(C(=O)N2CCC2)cn2c(C)c(C)nc12.O=C(O)CC(O)(CC(=O)O)C(=O)O` [Zastaprazan, azetidin-1-yl{8-[(2,6-dimethylbenzyl)amino]-2,3-dimethylimidazo[1,2-a]pyridin-6-yl}methanone citrate salt], the safety entry in data set [3] is on record as “no safety concerns”. In data set [4] (JP-1366 2 mg/kg oral once a day for five days with naproxen 40 mg/kg, non-fasting rats, stomach removed 4 h after last naproxen), the “ulcer area (antiulcer activity), FIG. 1” value is listed as “rapid decrease in the ulcer area”. Also, the “antiulcer efficacy compared with esomeprazole” value in data set [4] (JP-1366 2 mg/kg vs esomeprazole 2 mg/kg oral, once a day for five days with naproxen 40 mg/kg) is “superior to that of the control substance, esomeprazole”. For the same compound, the AUC(0-t) in “clinical” (human, in vivo, oral, Z (zastaprazan 40 mg alone), n = 22, mean ± SD, read-out: zastaprazan AUCT, SS) was found to be 1380 ± 695 ng·h/mL; in data set [2] (human, in vivo, 40 mg) it was 1120 ± 534 ng·h/mL; in data set [1] (Z (zastaprazan 40 mg alone), read-out: zastaprazan AUCT, SS), 1540 ± 724 ng·h/mL; in data set [1] (Z + A (zastaprazan 40 mg and aceclofenac 100 mg), read-out: zastaprazan AUCT, SS), 1440 ± 627 ng·h/mL. The Cmax in the data set “clinical” (human, oral, Z (zastaprazan 40 mg alone), n = 22, plasma, mean ± SD, read-out: zastaprazan Cmax, SS) was found to be 264 ± 88.5 ng/mL; in data set [2] (human, in vivo, 40 mg) it was 237 ± 72.8 ng/mL; in data set [1] (Z (zastaprazan 40 mg alone), read-out: zastaprazan Cmax, SS), 242 ± 84 ng/mL. Further, the “PK interaction between zastaprazan and naproxen” value in the data set “clinical” (summary of PART 3) is given as “No clinically significant PK interactions”. The “GMR [90% CI] of zastaprazan AUCT,SS” value in data set [2] (human, in vivo) is reported as 1.3332 (1.1494 to 1.5463). For the same compound, the “PK interaction between zastaprazan and meloxicam” value in data set [2] (summary of PART 2) is given as “No clinically significant PK interactions”. In addition, the “geometric mean ratio (GMR) [90% CI] of zastaprazan AUCT,SS” value in data set [1] (Z+A to Z) is listed as 0.9490 (0.9096 to 0.9902). The “geometric mean ratio (GMR) [90% CI] of zastaprazan Cmax,SS” value in data set [1] (Z+A to Z) is recorded as 1.0868 (0.9554 to 1.2362). In data set [1] (summary of PART 1), the “PK interaction between zastaprazan and aceclofenac” value is recorded as “No clinically significant PK interactions”.
